Source: patent US10100051B2, “Compound of 5-hydroxyl-1,7-naphthyridine substituted by aryloxy or heteroaryloxy, preparation method thereof and pharmaceutical use thereof” (SHENYANG SUNSHINE PHARMACEUTICAL CO. LTD., priority 2015, dated 2018)
“And” between values parts separate entries of the source, which are not always exact repeats. Equal values may be shown once.

System: male Balb/c mice
Assay: Effect on increasing erythrocyte of normal mice (reticulocyte count)
Assay type: in vivo
Design: unit not given here
Protocol: Biological Example 3: Effect of the Compounds of the Present Invention on Increasing Erythrocyte of Normal Mice
80 male Balb/c mice were divided into 11 groups, with 8 animals for each drug group, 10 animals for blank control group. Drug group: AKB-6548, 100 mg/kg, oral administration, once a day×3; FG-4592, 25 mg/kg, oral administration, once a day×3; EPO, 100 IU/kg, Day 1 and Day 3, subcutaneous injection, as positive control groups. Each of the compounds of the present invention was orally administrated at 25 mg/kg, once a day×3. Four hours after the last administration, orbital blood of all animals were collected and treated with EDTA-K2 anticoagulant, and reticulocytes (RETIC) were counted with a blood cell automated analyzer.

[1] = 25 mg/kg oral, once a day × 3, four hours after the last administration
[2] = 100 mg/kg oral, once a day × 3, four hours after the last administration
[3] = 100 IU/kg subcutaneous injection, Day 1 and Day 3, four hours after the last administration

Row | Compound | RETIC, Average [1] | RETIC, individual mice [1] | further results
1 | Cc1nc(C(=O)NCC(=O)O)c(O)c2ccc(Oc3ccc4c(c3)OCCO4)nc12 [Compound 12, 2-(2-((2,3-dihydrobenzo[b][1,4]dioxo-6-yl)oxy)-5-hydroxy-8-methyl-1,7-naphthyridine-6-formamido) acetic acid] | 5.24 | 5.4 and 5 (3×) and 6 and 5.6 (2×) and 4.3 | –
2 | O=C(O)CNC(=O)c1ncc(-c2cccc(Cl)c2)cc1O [AKB-6548-A, reference compound] | – | – | RETIC, Average [2]: 4.75; RETIC, individual mice [2]: 6.1 and 4 (2×) and 4.2 (2×) and 4.9 and 5.3 (2×)
3 | EPO: erythropoietin, glycoprotein hormone; exogenous positive control given subcutaneously | – | – | RETIC, Average [3]: 3.73; RETIC, individual mice [3]: 5.9 and 2.5 and 2.2 (2×) and 2.6 and 4.3 and 5.1 and 5
4 | COc1ccc(Oc2ccc3c(O)c(C(=O)NCC(=O)O)nc(C)c3n2)cc1 [Compound 14, 2-(5-hydroxy-2-(4-methoxyphenoxy)-8-methyl-1,7-naphthyridine-6-formamido) acetic acid] | 5.73 | 6.1 and 6.6 and 5.8 (2×) and 6.5 and 5.7 and 4.4 and 4.9 | –
5 | Cc1nc(C(=O)NCC(=O)O)c(O)c2ccc(Oc3ccccc3)nc12 [Compound 1, 2-(5-hydroxy-8-methyl-2-phenoxy-1,7-naphthyridine-6-formamido) acetic acid] | 4.73 | 4.4 and 5.2 and 4.8 and 5 and 5.3 and 4.1 (2×) and 4.9 | –
6 | Cc1nc(C(=O)NCC(=O)O)c(O)c2ccc(Oc3ccccc3)cc12 [FG-4592-A, reference compound] | 3.73 | 3.8 (2×) and 4 (2×) and 3.5 and 4.4 and 3.4 and 3.6 | –
